One data set relates to H. influenzae 1381. The data set is described as follows: MIC against Haemophilus strains. The class given is cell-based.
In another data set the test system is Moraxella M6. In words: MIC, agar incorporation method. The class given is cell-based.
Another data set has as its system H. influenzae 474. The data set is described as follows: MIC against Haemophilus strains. The class given is cell-based.
The next data set has as its system H. influenzae P318. In words: MIC against Haemophilus strains. The class given is cell-based.
The next data set relates to H. influenzae 451. The data set is described as follows: MIC against Haemophilus strains. It counts as cell-based.
Another data set has as its system 139. In words: MIC, agar incorporation method. The class given is cell-based. The method in brief: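 Doubling dilutions of compound in DMSO were incorporated into Mueller-Hinton agar; 10^4 CFU/spot inoculated from 0.5 McFarland suspensions and incubated 18 h (24 h for MRSN studies). MIC = lowest concentration without visible growth; valid only when ATCC reference strains gave in-range MICs.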

Another data set deals with M. tuberculosis V-591. In words: MIC against M. tuberculosis strains, agar dilution. The settings on record: S. No. 13 Mt-, Middle Brook 7H10 + OADC, 37° C., 14-21 days. It counts as cell-based, Mycobacterium tuberculosis.
The next data set deals with M. intracellulare B-78/3. In words: MIC against MAC strains, agar dilution. It counts as cell-based. The settings on record: S. No. 09 Mi-4, M. intracellulare B-78/3; Middle Brook 7H10 + OADC, 37° C., 14-21 days. For orientation: Agar dilution tests growth on a series of plates holding different concentrations.
Data set [1] has as its system M. avium intracellulare 4. The data set is described as follows: MIC against MAC strains, agar dilution. It counts as cell-based. To be noted: S. No. 11 Mai-2, M. avium intracellulare 4; Middle Brook 7H10 + OADC, 37° C., 14-21 days.
For a further data set, the system named is M. tuberculosis M-66. The data set is described as follows: MIC against M. tuberculosis strains, agar dilution. To be noted: S. No. 08 Mt-, Middle Brook 7H10 + OADC, 37° C., 14-21 days. It counts as cell-based, Mycobacterium tuberculosis.
The next data set concerns M. tuberculosis PC. In words: MIC against M. tuberculosis strains, agar dilution. The class given is cell-based, Mycobacterium tuberculosis. To be noted: S. No. 16 Mt-, Middle Brook 7H10 + OADC, 37° C., 14-21 days.
Data set [2] relates to M. avium intracellulare 559/97. In words: MIC against MAC strains, agar dilution. It counts as cell-based. The settings on record: S. No. 15 Mai-7, M. avium intracellulare 559/97; Middle Brook 7H10 + OADC, 37° C., 14-21 days.
Another data set relates to M. tuberculosis PC 4793. The data set is described as follows: MIC against M. tuberculosis strains, agar dilution. The class given is cell-based, Mycobacterium tuberculosis. The settings on record: S. No. 23 Mt-, Middle Brook 7H10 + OADC, 37° C., 14-21 days.
For a further data set, the system named is M. tuberculosis M-164. The data set is described as follows: MIC against M. tuberculosis strains, agar dilution. The class given is cell-based, Mycobacterium tuberculosis. The settings on record: S. No. 10 Mt-, Middle Brook 7H10 + OADC, 37° C., 14-21 days.
Data set [3] relates to M. avium intracellulare 1211/96. The data set is described as follows: MIC against MAC strains, agar dilution. The settings on record: S. No. 13 Mai-5, M. avium intracellulare 1211/96; Middle Brook 7H10 + OADC, 37° C., 14-21 days. The class given is cell-based.
Data set [4] deals with M. intracellulare ATCC 35761. The data set is described as follows: MIC against MAC strains, agar dilution. To be noted: S. No. 07 Mi-2, M. intracellulare ATCC 35761; Middle Brook 7H10 + OADC, 37° C., 14-21 days. The class given is cell-based.
For a further data set, the system named is M. tuberculosis M-149. The data set is described as follows: MIC against M. tuberculosis strains, agar dilution. The class given is cell-based, Mycobacterium tuberculosis. To be noted: S. No. 15 Mt-, Middle Brook 7H10 + OADC, 37° C., 14-21 days.
The test system of the next data set is M. tuberculosis SGPGI. The data set is described as follows: MIC against M. tuberculosis strains, agar dilution. To be noted: S. No. 05 Mt-, Middle Brook 7H10 + OADC, 37° C., 14-21 days. It counts as cell-based, Mycobacterium tuberculosis.
In data set [5] the test system is M. avium intracellulare 19/97. The data set is described as follows: MIC against MAC strains, agar dilution. It counts as cell-based. The settings on record: S. No. 17 Mai-10, M. avium intracellulare 19/97; Middle Brook 7H10 + OADC, 37° C., 14-21 days.
In data set [6] the test system is M. avium intracellulare 540/96. The data set is described as follows: MIC against MAC strains, agar dilution. It counts as cell-based. To be noted: S. No. 12 Mai-4, M. avium intracellulare 540/96; Middle Brook 7H10 + OADC, 37° C., 14-21 days.
The test system of data set [7] is M. avium intracellulare 356/97. The data set is described as follows: MIC against MAC strains, agar dilution. It counts as cell-based. The settings on record: S. No. 10 Mai-1, M. avium intracellulare 356/97; Middle Brook 7H10 + OADC, 37° C., 14-21 days.
Setting [8] is: Haemophilus influenzae, s. No. 7, H. influenzae 1381, read-out: MIC.
Setting [9] is: Haemophilus influenzae, s. No. 11, H. influenzae 474, read-out: MIC.
Where [10] appears, read: Haemophilus influenzae, s. No. 10, H. influenzae P318, read-out: MIC.
Setting [11] is: Haemophilus influenzae, s. No. 8, H. influenzae 451, read-out: MIC.

Values after ≈ are worked out from the molar mass of the structure shown. Where two headings read alike, the source gives them in different places. Some results are limits rather than exact numbers.

As usually defined, the melting point is the temperature of the solid-liquid transition.

Consider `CC(=O)NC[C@H]1CN(c2ccc(N3CCN(c4ccc(C=O)s4)CC3)c(F)c2)C(=O)O1` [Compound No. 2, (S)—N-[[3-[3-Fluoro-4-[4-(5-formyl-2-thienyl)-1-piperazinyl]phenyl]-2-oxo-5-oxazolidinyl]methyl]acetamide], for which the melting point was 180 °C (dec.). The MIC in the data set with H. influenzae 1381 (setting [8]) came to 8 µg/mL (≈ 17.9 µM). Besides, the MIC with Moraxella M6 (S. No. 60, Moraxella M6, read-out: MIC) amounted to 0.5 µg/mL (≈ 1.12 µM). In the data set with H. influenzae 474 (setting [9]), the MIC came out at 16 µg/mL (≈ 35.8 µM). The MIC with H. influenzae P318 (setting [10]) is greater than 16 µg/mL. The MIC with H. influenzae 451 (setting [11]) came out at 16 µg/mL (≈ 35.8 µM).
On to `CC(=O)NC[C@H]1CN(c2ccc(N3CCN(c4ccc(C=O)o4)CC3)c(F)c2)C(=O)O1` [Compound No. 3, (S)—N-[[3-[3-Fluoro-4-[4-(5-formyl-2-furyl)-1-piperazinyl]phenyl]-2-oxo-5-oxazolidinyl]methyl]acetamide], for which the melting point was determined as 176 °C. The MIC in the data set with H. influenzae 1381 (setting [8]) was 8 µg/mL (≈ 18.6 µM). For the same compound, the MIC with H. influenzae 474 (setting [9]) is 4 µg/mL (≈ 9.29 µM). Besides, the MIC in the data set with H. influenzae P318 (setting [10]) amounted to 8 µg/mL (≈ 18.6 µM). This compound also had an MIC in the data set on 139 of 0.5 µg/mL (≈ 1.16 µM). In addition, the MIC in the data set on H. influenzae 451 (setting [11]) is 8 µg/mL (≈ 18.6 µM).
`CC(=O)NC[C@H]1CN(c2ccc(N3CCN(c4ccc([N+](=O)[O-])o4)CC3)c(F)c2)C(=O)O1` [Compound No. 4, (S)—N-[[3-[3-Fluoro-4-[4-(5-nitro-2-furyl)-1-piperazinyl]phenyl]-2-oxo-5-oxazolidinyl]methyl]acetamide] registered a melting point of 191 to 204 °C.
Consider `CC(=O)NC[C@H]1CN(c2ccc(N3CCN(c4cc(C(OC(C)=O)OC(C)=O)sc4[N+](=O)[O-])CC3)c(F)c2)C(=O)O1` [Compound No. 5, (S)—N-[[3-[3-Fluoro-4-[4-{3-thienyl(2-nitro)-5-acetyloxy}methylacetate]-1-piperazinyl]phenyl]-2-oxo-5-oxazolidinyl]acetamide], for which the MIC was greater than 16 µg/mL in the data set with H. influenzae 1381 (s. No. 7, H. influenzae 1381); 2 µg/mL (≈ 3.37 µM) in the data set with Moraxella M6 (S. No. 60, Moraxella M6); greater than 16 µg/mL in the data set on H. influenzae 474 (s. No. 11, H. influenzae 474); greater than 16 µg/mL against H. influenzae P318 (s. No. 10, H. influenzae P318); greater than 16 µg/mL against H. influenzae 451 (s. No. 8, H. influenzae 451).
In the case of `CC(=O)NC[C@H]1CN(c2ccc(N3CCN(c4ccc([N+](=O)[O-])s4)CC3)cc2)C(=O)O1` [Compound No. 6, (S)—N-[[3-[4-[N-1-(5-nitro-2-thienyl)piperazinyl]-phenyl]-2-oxo-5-oxazolidinyl]-methyl]-acetamide], the MIC against H. influenzae 1381 (s. No. 7, H. influenzae 1381) stood at 16 µg/mL (≈ 35.9 µM); with H. influenzae 474 (s. No. 11, H. influenzae 474), 16 µg/mL (≈ 35.9 µM); with H. influenzae P318 (s. No. 10, H. influenzae P318), 16 µg/mL (≈ 35.9 µM); against H. influenzae 451 (s. No. 8, H. influenzae 451), 16 µg/mL (≈ 35.9 µM).
As to `C[C@H](Cl)C(=O)NCC1CN(c2ccc(N3CCN(c4ccc([N+](=O)[O-])s4)CC3)c(F)c2)C(=O)O1` (stereo partly drawn) [Compound No. 7, (S)—N-[[3-[3-Fluoro-4-[N-1-{4-(5-nitro-2-thienyl)piperazinyl}]-phenyl]-2-oxo-5-oxazolidinyl]-methyl]-2-chloro-propionamide], the MIC against H. influenzae 1381 (s. No. 7, H. influenzae 1381) is greater than 16 µg/mL; in the data set with Moraxella M6 (S. No. 60, Moraxella M6) it was greater than 8 µg/mL; against H. influenzae 474 (s. No. 11, H. influenzae 474), greater than 16 µg/mL; with H. influenzae P318 (s. No. 10, H. influenzae P318), greater than 16 µg/mL; against H. influenzae 451 (s. No. 8, H. influenzae 451), greater than 16 µg/mL.
`O=C(NC[C@H]1CN(c2ccc(N3CCN(c4ccc([N+](=O)[O-])s4)CC3)c(F)c2)C(=O)O1)C(F)F` [Compound No. 8, (S)—N-[[3-[3-Fluoro-4-[4-(5-nitro-2-thienyl)-1-piperazinyl]phenyl]-2-oxo-5-oxazolidinyl]methyl]difluoroacetamide]: the MIC against H. influenzae 1381 (Haemophilus influenzae, 1381) was greater than 16 µg/mL; against Moraxella M6 (Moraxella, M6), 1 µg/mL (≈ 2 µM); with H. influenzae 474 (Haemophilus influenzae, 474) it was greater than 16 µg/mL; against H. influenzae P318 (Haemophilus influenzae, P318) it was greater than 16 µg/mL; against H. influenzae 451 (Haemophilus influenzae, 451) it was greater than 16 µg/mL.
For `CO[C@H]1/C=C/O[C@@]2(C)Oc3c(C)c(O)c4c(O)c(c(/C=N/N5CCN(C)CC5)c(O)c4c3C2=O)NC(=O)/C(C)=C\C=C\[C@H](C)[C@H](O)[C@@H](C)[C@@H](O)[C@@H](C)[C@H](OC(C)=O)[C@@H]1C` [RIF], the MIC with M. tuberculosis V-591 was greater than 32 µg/mL; in the data set on M. intracellulare B-78/3, 0.25 µg/mL; in [1], 0.25 µg/mL; in the data set with M. tuberculosis M-66, greater than 32 µg/mL; in the data set with M. tuberculosis PC, 4.0 µg/mL; in data set [2] it was greater than 32 µg/mL. The MIC is 2.0 µg/mL in the data set with M. tuberculosis PC 4793; greater than 32 µg/mL with M. tuberculosis M-164; 0.25 µg/mL in [3]; 0.25 µg/mL in data set [4]; greater than 32 µg/mL with M. tuberculosis M-149; 16 µg/mL in the data set on M. tuberculosis SGPGI. Besides, the MIC in data set [5] was greater than 32 µg/mL; in data set [6] it was greater than 32 µg/mL; in data set [7] it was 0.5 µg/mL.
Take `CN[C@H](CC(C)C)C(=O)N[C@H]1C(=O)N[C@@H](CC(N)=O)C(=O)N[C@H]2C(=O)N[C@H]3C(=O)N[C@H](C(=O)N[C@H](C(=O)O)c4cc(O)cc(O)c4-c4cc3ccc4O)[C@H](O)c3ccc(c(Cl)c3)Oc3cc2cc(c3O[C@@H]2O[C@H](CO)[C@@H](O)[C@H](O)[C@H]2O[C@H]2C[C@](C)(N)[C@H](O)[C@H](C)O2)Oc2ccc(cc2Cl)[C@H]1O` [Vancomycin, reference compound]: the MIC in the data set with Moraxella M6 (Moraxella, M6) is greater than 8 µg/mL; against 139, greater than 16 µg/mL.
As for `O=C(NC[C@H]1CN(c2ccc(N3CCN(c4ccc([N+](=O)[O-])s4)CC3)c(F)c2)C(=O)O1)C(Cl)Cl` [compound 9, (S)—N-[[3-[-3-Fluoro-4-[N-1-(5-nitro-2-thienyl)-piperazinyl]phenyl] -2-oxo-5-oxazolidinyl]methyl]dichloroacetamide], the MIC is greater than 16 µg/mL in the data set with H. influenzae 1381 (s. No. 7, H. influenzae 1381); 1 µg/mL (≈ 1.88 µM) against Moraxella M6 (S. No. 60, Moraxella M6); greater than 16 µg/mL in the data set with H. influenzae 474 (s. No. 11, H. influenzae 474); greater than 16 µg/mL with H. influenzae P318 (s. No. 10, H. influenzae P318); greater than 16 µg/mL in the data set on H. influenzae 451 (s. No. 8, H. influenzae 451).
For the compound “(S)—N-[[3-[-3-Fluoro-4-[(5-nitro-2-thienyl)-3-methyl-1-piperazinyl]phenyl]-2-oxo-5-oxazolidinyl]methyl]acetamide [Compound No. 10]”, the MIC was greater than 16 µg/mL in the data set with H. influenzae 1381 (s. No. 7, H. influenzae 1381); 2 µg/mL with Moraxella M6 (S. No. 60, Moraxella M6); greater than 16 µg/mL against H. influenzae 474 (s. No. 11, H. influenzae 474); greater than 16 µg/mL with H. influenzae P318 (s. No. 10, H. influenzae P318); greater than 16 µg/mL against H. influenzae 451 (s. No. 8, H. influenzae 451).

For the origin of these results see US20060293307A1, “Oxazolidinone derivatives as antimicrobials” (priority 2002, published 2006).
